The values that follow come from patent US10308656B2, “Small molecule inhibitors of Ku70/80 and uses thereof” (ARIZONA BOARD OF REGENTS ON BEHALF OF THE UNIVERSITY OF …, priority 2015, dated 2019).

Data set [1] deals with Ku70/80 heterodimer-DNA interaction (Homo sapiens, UniProt P12956+P13010). Put plainly: Electrophoretic Mobility Shift Assay (EMSA) of Ku70/80 binding to a DNA substrate. Particulars: for Disruption of Ku70/80-DNA interaction (disappearance of the band shift): compound at 100 μM in EMSA reaction. An excerpt:
Next, the described ‘protomol’ was utilized as a guide to screen small molecule databases for potential inhibitors. Hits were sorted from highest to lowest docking scores and nine compounds were ultimately chosen for biological activity screening (see, Table 1). These compounds were commercially obtained and designated with a letter (A through H, and L). For initial activity screening experiments utilized an Electrophoretic Mobility Shift Assay (EMSA), in which a radioactively labeled artificial DNA substrate was incubated with a preparation of purified Ku70/80 protein, followed by non-denaturing gel electrophoresis. Interaction of Ku70/80 with DNA caused a measurable shift of the DNA band. […] Compounds C and L were further investigated for their ability to disrupt the Ku70/80 DNA interaction as well as Ku-dependent activation of the DNA-PKcs kinase.
Therefore, a two orders of magnitude range of serial dilutions of the compounds was added to the previously described EMSA reactions. Inhibition of Ku-DNA interaction in a straight forward dose-dependent manner by compound L alone was observed (FIG. 3B). In order to quantify the relative efficiency of Ku-DNA binding for each dose of Compound L, the intensity of the Ku-DNA bands in the EMSA assay was measured and normalized those values to a number between 0 and 100, where the value 0 represents a reaction where no Ku70/80 was present and the value 100 represents a reaction where no inhibitor was added. These normalized values were subsequently plotted against the corresponding concentrations of Compound L (FIG. 3B). A logarithmic trend line was added and equations were obtained to describe the dose-response curves of Compound L in the EMSA assay. […] IC50 values in this range are generally considered to be a viable starting point for lead-finding exploits.
Background: In EMSA bound probe runs differently from free probe, usually more slowly.

Data set [2] concerns the target DNA-PKCS kinase (Ku-dependent activation) (Homo sapiens, UniProt P12956+P13010). The data set is described as follows: DNA-PKCS kinase activity assay, Ku70/80-dependent in vitro phosphorylation of a p53-based peptide substrate. Conditions: for Impairment of Ku-dependent activation of DNA-PKCS: in vitro. It is filed as biochemical. An excerpt: To further validate the Ku-inhibitory activity of Compound L, experiments examined its effects on Ku-dependent activation of the DNA-PKCS kinase. […] It is, however, a potent co-factor for the activation of other NHEJ enzymes, including DNA-PKCS (see, G. C. Smith, et al., Genes Dev., 13 (1999), pp. 916-934). It was therefore reasoned that disruption of the Ku-DNA interaction by Compound L should also diminish DNA-PKCS kinase activity. The DNA-PKCS kinase has multiple known downstream targets, including p53, Artemis, and DNA-PKCS itself (see, E. Weterings, et al., Cell Res., 18 (2008), pp. 114-124; G. C. Smith, et al., Genes Dev., 13 (1999), pp. 916-934). It is at present not entirely clear which targets are critical for the overall DNA repair response, but it is evident that the kinase domain of DNA-PKCS is indispensable. Experiments therefore quantified the kinase activity of a purified preparation of the DNA-PKCS protein in the presence of different concentrations of Compound L. Experiments measured the phosphorylation of a p53-based peptide substrate as an arbitrary reporter of DNA-PKCS kinase activity. The obtained in vitro DNA-PKCS kinase activities were subsequently normalized and plotted as a function of compound L concentration (FIG. 4A). Experiments observed a sharp dose-dependent inhibition of DNA-PKCS kinase activity. […] Therefore, both primary (EMSA) and secondary (DNA-PKCS activity) assays for the Ku-inhibitory potential of Compound L indicate an IC50 value in the lower micro-molar range.
This example compares the in vitro activity of several structural analogs of Compound L. This assay measures the effect of each compound on the in vitro activity of the DNA-PKCS kinase.

Data set [3] has as its system SF-767 glioblastoma cells. Put plainly: Radiation sensitization / cytotoxicity by MTS assay in glioblastoma cells. It is filed as cell-based, human. Particulars: for Sensitization to radiation therapy (RT): human glioblastoma multiforme (GBM) cells. The protocol:
(§1) Consequently, this substance could have an effect on the efficiency of overall repair of DSBs. In order to examine this potential, experiments tested Compound L for its ability to potentiate the effects of ionizing radiation on two human cell lines: the glioblastoma cell line SF-767 (FIG. 5A), and an hTERT immortalized prostate epithelial (PrEC) cell line (see, R. Berger, et al., Cancer Res., 64 (2004), pp. 8867-8875) (FIG. 5B). Cultured cells were treated with either the compound as a single modality, ionizing radiation as a single modality or with a regimen of concurrent radiation and compound. Cell viability was measured after a six day recovery period by standard MTS assay and normalized to the untreated control (no compound or radiation). FIG. 5 presents the observed effects of each treatment modality in terms of percentage non-viable cells. The effects are plotted as a function of the compound's concentration in the culture medium.
(§2) As expected, experiments observed a clear, dose-dependent increase in non-viable cell population with increasing concentrations of Compound L (FIG. 5, red columns). This reflects the fundamental cytotoxicity of the compound under the chosen experimental conditions. In both cell lines, toxicity of Compound L stayed low (below 5% non-viability) up to 25 μM, after which an exponential increase in cytotoxicity was observed. […] In order to exclude the possibility that this phenomenon was caused by mere additive effects, experiments calculated the sum of the effects of the single modalities (FIG. 5, purple columns) and compared the obtained values with the effects of the combination treatments. By definition, synergism is present when the effect of the combination therapy (green columns) exceeds the sum of the effects of the single modalities (purple columns). In SF-767 cells, synergism was most clearly observed between 20 and 30 μM (FIG. 5A) and in immortalized PrEC cells synergism was present in the 20-35 μM range (FIG. 5B).
(§3) This is done by means of a standard MTS assay, measuring survival of human glioblastoma (SF767) or immortalized prostate epithelial (PrEC) cells 7 days after treatment with compounds and radiation therapy. […] The radiation-sensitizing potential of Compound L and JV761 is attributable to the ability of these compounds to suppress the activity of Ku70/80 in vivo.

Data set [4] can be described thus: Radiation sensitization / cytotoxicity by MTS assay in prostate epithelial cells. It is filed as cell-based, human. Conditions: human, hTERT immortalized prostate epithelial (PrEC) cells; PrEC, up to 25 μM, MTS after six day recovery; read-out: Non-viability (toxicity of compound as single modality). The method, then:
as §1
(§4) As expected, experiments observed a clear, dose-dependent increase in non-viable cell population with increasing concentrations of Compound L (FIG. 5, red columns). […] In order to exclude the possibility that this phenomenon was caused by mere additive effects, experiments calculated the sum of the effects of the single modalities (FIG. 5, purple columns) and compared the obtained values with the effects of the combination treatments. […]

In data set [5] the test system is hTERT immortalized prostate epithelial (PrEC) cells. The description is as above. It is filed as cell-based, human. Particulars: immortalized PrEC, concurrent compound and radiation, FIG. 5B. The protocol:
as §1, §4

Data set [6] in a line: Tolerability and toxicity after bolus IP injection with two week follow-up. It is filed as in vivo. Conditions: mice.
Data set [7] relates to DNA-PKCS SER2056 autophosphorylation in SF-767 cells. The data set is described as follows: DNA-PKCS autophosphorylation assay (Western blot) after etoposide-induced DSBs. Type of data set: cell-based, human. An excerpt:
In order to further examine the effects of Compound L on Ku-dependent activation of the DNA-PKCS kinase in vivo, experiments also exposed cultures of the human glioblastoma cell line SF-767 to increasing concentrations of Compound L. Upon induction of DSBs by etoposide, experiments quantified the levels of DNA-PKCS autophosphorylation at the SER2056 residue by means of Western blot analysis (FIG. 4B).
For orientation: In western blotting, separated proteins are transferred to a membrane and probed.

The nature of data set [8]: Pharmacokinetic profile after bolus IP injection, plasma levels by LC-MS. It is filed as in vivo, nude mice. Conditions: bolus IP 1, 3 or 5 mg/kg. The protocol:
A bolus IP injection of Compound L was given at either 1, 3, or 5 mg/kg and plasma levels of Compound L were determined by LC-MS.

Data set [9] in a line: Radiation sensitization / cytotoxicity by MTS assay in glioblastoma cells. It is filed as cell-based, human. Conditions: human, SF-767 glioblastoma cells; SF-767, up to 25 μM, MTS after six day recovery; read-out: Non-viability (toxicity of compound as single modality). The protocol:
as §1, §2, §3

The test system of data set [10] is DNA double strand break (DSB) repair in glioblastoma cells (SF767). The data set is described as follows: DSB repair after radiation by γ-H2AX phosphorylation. Type of data set: cell-based, human. Particulars: 25 μM, post radiation. The protocol:
This repair process is dependent on active Ku70/80 and the suppression of Ku-dependent DSB repair is further proof that Compound L inhibits Ku70/80 activity. The relative amount of DSBs is measured by counting the relative intensity of a canonical DSB marker: γ-H2AX.
Relative number of DSBs was measured by quantifying and normalizing γ-H2AX phosphorylation. […] Measured in human glioblastoma cells (SF767). Error bars represent standard error.

Entries after “also recorded” stand apart in the source; their conditions may differ.

Chain of Ku70/80 heterodimer-DNA interaction (P12956 whole entry): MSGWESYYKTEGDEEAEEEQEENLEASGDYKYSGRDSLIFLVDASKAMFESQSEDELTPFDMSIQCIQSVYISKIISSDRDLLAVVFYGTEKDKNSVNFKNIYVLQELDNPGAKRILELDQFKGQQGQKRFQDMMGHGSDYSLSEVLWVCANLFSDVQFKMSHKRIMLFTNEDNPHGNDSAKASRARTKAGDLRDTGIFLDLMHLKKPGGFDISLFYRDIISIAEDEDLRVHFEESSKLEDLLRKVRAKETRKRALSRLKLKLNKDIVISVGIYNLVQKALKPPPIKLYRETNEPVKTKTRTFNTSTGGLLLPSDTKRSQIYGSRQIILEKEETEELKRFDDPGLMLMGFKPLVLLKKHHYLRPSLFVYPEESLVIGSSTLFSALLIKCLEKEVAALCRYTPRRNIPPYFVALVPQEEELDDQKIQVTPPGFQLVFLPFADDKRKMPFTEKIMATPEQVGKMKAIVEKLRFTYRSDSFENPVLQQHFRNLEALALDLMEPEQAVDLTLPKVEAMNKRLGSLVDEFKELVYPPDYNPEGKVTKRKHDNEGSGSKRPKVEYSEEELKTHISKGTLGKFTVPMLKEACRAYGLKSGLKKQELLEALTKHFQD
Chain of Ku70/80 heterodimer-DNA interaction (P13010 whole entry): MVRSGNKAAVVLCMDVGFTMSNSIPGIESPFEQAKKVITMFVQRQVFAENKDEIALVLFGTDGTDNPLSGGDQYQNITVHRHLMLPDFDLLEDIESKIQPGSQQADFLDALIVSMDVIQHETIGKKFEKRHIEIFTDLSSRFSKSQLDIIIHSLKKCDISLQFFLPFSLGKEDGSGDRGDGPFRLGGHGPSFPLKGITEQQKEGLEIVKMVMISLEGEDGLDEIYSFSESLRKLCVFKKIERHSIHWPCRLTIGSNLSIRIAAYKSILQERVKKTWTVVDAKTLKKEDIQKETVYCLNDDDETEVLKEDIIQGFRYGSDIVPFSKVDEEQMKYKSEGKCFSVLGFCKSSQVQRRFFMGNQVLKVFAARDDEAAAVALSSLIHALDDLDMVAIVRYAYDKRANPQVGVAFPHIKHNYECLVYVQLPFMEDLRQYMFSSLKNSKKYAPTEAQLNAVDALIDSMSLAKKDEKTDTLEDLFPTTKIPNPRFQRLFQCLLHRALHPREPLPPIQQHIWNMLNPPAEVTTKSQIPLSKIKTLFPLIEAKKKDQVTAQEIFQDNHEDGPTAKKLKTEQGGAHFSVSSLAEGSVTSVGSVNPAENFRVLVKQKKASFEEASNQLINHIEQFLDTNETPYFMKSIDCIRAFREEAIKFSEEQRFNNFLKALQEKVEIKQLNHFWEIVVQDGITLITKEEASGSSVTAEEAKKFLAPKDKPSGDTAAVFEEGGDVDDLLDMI
Chain of DNA-PKCS kinase (Ku-dependent activation) (P12956 whole entry): as the sequence (P12956 whole entry) above
Chain of DNA-PKCS kinase (Ku-dependent activation) (P13010 whole entry): as the sequence (P13010 whole entry) above

Take `COc1ccc(N2CCN(Cc3nc(N)nc(Nc4cccc(C)c4)n3)CC2)cc1` [Compound C, 4-[[4-(4-methoxyphenyl)piperazin-1-yl]methyl]-6-(m-tolyimino)-5H-1,3,5-triazin-2-amine]: in data set [1], the “Disruption of Ku70/80-DNA interaction (disappearance of the band shift)” value is “disruption of the Ku70/80-DNA interaction; also recorded: screen positive for disruption of Ku70/80-DNA interaction; also recorded: capable of disrupting the binding of Ku to DNA”. The “Impairment of Ku-dependent activation of DNA-PKCS” value in data set [2] is “capable of disrupting the binding of Ku to DNA as well as the activation of DNA-PKCS”. Besides, in data set [3], the “Sensitization to radiation therapy (RT)” value is “synergistically sensitize”.

Take `COc1ccc(CCNc2ncc3c(=O)n(-c4cccc(F)c4)c(=O)[nH]c3n2)cc1OC` [Compound L, 7-[[2-(3,4-dimethoxyphenyl)ethyl]amino]-3-(3-fluorophenyl)pyrimido[4,5-d] pyrimidine-2,4(1H,3H)-dione]: the cytotoxicity at 6 days in data set [4] and in [9] was less than 5% in each case. For the same molecule, in [5], the “Concentration range of synergism with radiation” value fell in the range of 20 to 35 µM. The IC50 (commonly the concentration needed to halve the response being measured) in [1] (EMSA titration, logarithmic trend line, read-out: IC50, dose needed to inhibit 50% of maximal Ku-DNA binding) came out at 3.5 µM; in data set [2] (p53-based peptide substrate, logarithmic trend line), 2.5 µM. In addition, the “Disruption of Ku70/80-DNA interaction (disappearance of the band shift)” value in data set [1] is reported as “disruption of the Ku70/80-DNA interaction; also recorded: screen positive for disruption of Ku70/80-DNA interaction; also recorded: capable of disrupting the binding of Ku to DNA”. For the same molecule, the “Impairment of Ku-dependent activation of DNA-PKCS” value in data set [2] is reported as “capable of disrupting the binding of Ku to DNA as well as the activation of DNA-PKCS”. Further, in data set [6] (after two weeks), the “Histopathology and comprehensive blood panels” value is “no abnormalities; also recorded: normal”. In addition, the Signs of toxicity result in data set [6] (bolus IP, acute and two week follow-up) was “did not reveal any acute toxicity; also recorded: did not reveal signs of toxicity”. Moreover, the Tolerability result in [6] (single bolus IP injection up to 5 mg/kg) is reported as “well tolerated”. The “Total DNA-PKCS level” value in data set [7] (Western blot) was “not suppressed”. The “DNA-PKCS autophosphorylation at the SER2056 residue” value in data set [7] (increasing doses, etoposide) is on record as “sharp decline”. Also, in [8] (LC-MS), the “Plasma levels versus dose” value was “directly proportional to dose”. For the same molecule, in data set [8] (mouse, plasma, nude mice), the half-life (in general, the time in which the quantity being followed falls by half) is roughly 1.5 h. In addition, in data set [3] (human cancer cells, 4Gy radiation, MTS 7 days after treatment, FIG. 9), the “Concentration range of synergistic radiation-sensitization” value was 20 to 30 µM. Further, the “Sensitization to radiation therapy (RT)” value in data set [3] is listed as “synergistically sensitize”. Besides, the “DSB repair kinetics (γ-H2AX)” value in data set [10] is “significantly delayed”.
